# Tests used:
# Format in all cases: binding
# Conditions in all cases: Compound Concentration 10 µM
# panel of 442 kinases [1] = target: T1, panel of 442 kinases (Homo sapiens, UniProt P07949, V804M)
# T1 construct: purchased KINOMEscan
# Text: (§1) We assessed the selectivity of members of this scaffold using the KINOMEscan methodology across a near comprehensive panel of 442 kinases [[18,27]].
# panel of 442 kinases [2] = target: T2, panel of 442 kinases (Homo sapiens, UniProt Q9UPZ9)
# T2 construct: purchased KINOMEscan
# T2 sequence (Q9UPZ9 1-632): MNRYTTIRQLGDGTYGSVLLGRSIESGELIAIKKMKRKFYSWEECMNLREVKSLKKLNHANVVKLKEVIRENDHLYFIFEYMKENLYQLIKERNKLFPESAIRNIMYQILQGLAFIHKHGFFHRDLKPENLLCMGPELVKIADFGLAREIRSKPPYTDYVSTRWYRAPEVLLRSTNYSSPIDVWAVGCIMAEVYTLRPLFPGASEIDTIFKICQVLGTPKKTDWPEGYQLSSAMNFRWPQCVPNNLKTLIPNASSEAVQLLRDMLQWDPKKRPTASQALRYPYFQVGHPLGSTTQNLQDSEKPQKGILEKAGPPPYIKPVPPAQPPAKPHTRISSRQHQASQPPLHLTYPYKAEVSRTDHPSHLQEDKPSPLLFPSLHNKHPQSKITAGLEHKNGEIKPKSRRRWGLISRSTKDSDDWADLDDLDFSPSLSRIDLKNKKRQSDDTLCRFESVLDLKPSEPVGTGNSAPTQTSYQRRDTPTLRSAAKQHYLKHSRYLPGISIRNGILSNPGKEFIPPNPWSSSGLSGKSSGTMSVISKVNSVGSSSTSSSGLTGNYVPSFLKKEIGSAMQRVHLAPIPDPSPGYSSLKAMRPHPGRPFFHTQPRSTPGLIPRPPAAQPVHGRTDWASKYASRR
# Text: as §1
# panel of 442 kinases [3] = target: T3, panel of 442 kinases (Homo sapiens, UniProt P54756)
# T3 construct: purchased KINOMEscan
# T3 sequence (P54756 25-1037): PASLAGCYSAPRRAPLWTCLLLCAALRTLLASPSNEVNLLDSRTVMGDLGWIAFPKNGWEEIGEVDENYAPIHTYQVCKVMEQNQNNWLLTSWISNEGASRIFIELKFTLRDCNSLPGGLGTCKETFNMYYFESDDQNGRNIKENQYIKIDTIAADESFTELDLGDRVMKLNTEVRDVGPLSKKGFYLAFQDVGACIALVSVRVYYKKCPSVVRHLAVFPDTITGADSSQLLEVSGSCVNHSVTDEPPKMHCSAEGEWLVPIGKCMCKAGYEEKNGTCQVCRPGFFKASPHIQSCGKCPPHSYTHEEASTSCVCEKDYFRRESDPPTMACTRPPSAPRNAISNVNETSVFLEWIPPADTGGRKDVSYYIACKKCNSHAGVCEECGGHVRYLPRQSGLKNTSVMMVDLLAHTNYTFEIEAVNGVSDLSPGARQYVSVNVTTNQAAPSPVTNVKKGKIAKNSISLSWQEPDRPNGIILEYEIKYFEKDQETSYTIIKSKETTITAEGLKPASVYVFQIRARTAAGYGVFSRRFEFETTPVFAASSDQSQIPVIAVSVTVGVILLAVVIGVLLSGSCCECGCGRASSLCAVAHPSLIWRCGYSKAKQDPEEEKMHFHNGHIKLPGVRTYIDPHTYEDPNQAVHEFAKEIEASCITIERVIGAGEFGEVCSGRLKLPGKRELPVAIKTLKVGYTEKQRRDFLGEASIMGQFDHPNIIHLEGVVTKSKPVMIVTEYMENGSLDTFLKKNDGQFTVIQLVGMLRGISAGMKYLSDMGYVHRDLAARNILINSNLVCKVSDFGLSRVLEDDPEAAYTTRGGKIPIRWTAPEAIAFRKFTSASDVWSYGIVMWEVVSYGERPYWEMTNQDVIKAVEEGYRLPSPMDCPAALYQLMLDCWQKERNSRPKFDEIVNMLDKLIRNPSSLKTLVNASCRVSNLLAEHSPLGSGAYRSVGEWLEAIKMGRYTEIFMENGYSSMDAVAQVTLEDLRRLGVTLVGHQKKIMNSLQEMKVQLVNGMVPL
# Text: as §1
# T1 sequence (P07949 29-1114 V804M): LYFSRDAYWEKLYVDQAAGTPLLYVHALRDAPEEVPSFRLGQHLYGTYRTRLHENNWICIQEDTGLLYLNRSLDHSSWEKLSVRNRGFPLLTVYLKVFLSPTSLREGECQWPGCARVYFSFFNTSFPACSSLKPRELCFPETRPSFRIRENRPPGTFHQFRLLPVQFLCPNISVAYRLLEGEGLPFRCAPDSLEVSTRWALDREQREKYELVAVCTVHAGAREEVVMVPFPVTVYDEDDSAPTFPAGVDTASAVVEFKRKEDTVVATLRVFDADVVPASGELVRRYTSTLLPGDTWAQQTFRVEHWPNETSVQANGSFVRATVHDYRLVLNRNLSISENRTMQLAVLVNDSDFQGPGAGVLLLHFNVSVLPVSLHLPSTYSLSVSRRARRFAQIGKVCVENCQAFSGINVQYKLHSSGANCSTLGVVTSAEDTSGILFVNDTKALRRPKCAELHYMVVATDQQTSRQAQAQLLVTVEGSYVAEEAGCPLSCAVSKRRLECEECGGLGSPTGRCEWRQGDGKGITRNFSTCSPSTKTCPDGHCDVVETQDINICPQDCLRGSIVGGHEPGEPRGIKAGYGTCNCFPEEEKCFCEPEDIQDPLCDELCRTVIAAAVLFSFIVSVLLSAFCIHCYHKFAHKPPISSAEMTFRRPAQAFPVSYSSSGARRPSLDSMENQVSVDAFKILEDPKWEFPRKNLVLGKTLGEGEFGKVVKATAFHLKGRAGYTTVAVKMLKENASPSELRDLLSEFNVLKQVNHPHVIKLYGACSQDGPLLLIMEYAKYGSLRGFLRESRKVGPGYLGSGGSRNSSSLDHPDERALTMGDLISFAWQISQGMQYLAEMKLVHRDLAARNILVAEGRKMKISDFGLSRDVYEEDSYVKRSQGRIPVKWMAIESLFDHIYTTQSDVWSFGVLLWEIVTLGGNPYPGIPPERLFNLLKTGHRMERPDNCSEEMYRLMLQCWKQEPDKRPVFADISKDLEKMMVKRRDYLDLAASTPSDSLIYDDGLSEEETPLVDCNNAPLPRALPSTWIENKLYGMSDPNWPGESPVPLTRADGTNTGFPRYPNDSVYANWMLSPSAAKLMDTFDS
SMILES,KINOMEscan: RET(V804M) (panel of 442 kinases [1]),KINOMEscan: ICK (panel of 442 kinases [2]),KINOMEscan: EPHA5 (panel of 442 kinases [3])
COc1cc(C(=O)N2CCC(N3CCN(C)CC3)CC2)ccc1Nc1ncc2c(n1)N(C)c1ccccc1C(=O)N2C [15 (LRRK2-IN-1)],80,90,95
COc1cc(C(=O)N2CCC(N3CCN(C)CC3)CC2)ccc1Nc1ncc2c(n1)N1CCc3cccc(c31)C(=O)N2C [Compound 24],,,94
"COc1cc(C(=O)N2CCC(N3CCN(C)CC3)CC2)ccc1Nc1ncc2c(n1)N(C1CCCC1)c1ccccc1C(=O)N2C [Compound 25, 11-cyclopentyl-2-((2-methoxy-4-(4-(4-methylpiperazin-1-yl)piperidine-1-carbonyl)phenyl)amino)-5-methyl-5H-benzo[e]pyrimido[5,4-b][1,4]diazepin-6(11H)-one]",100,100,99
CCOc1cc(C(=O)N2CCC(N3CCN(C)CC3)CC2)ccc1Nc1ncc2c(n1)N(C1CCCC1)c1ccccc1C(=O)N2C [Compound 26],100,100,100

# From paper PMC3914206
